Source: patent publication US4556713A, “6-Fluoro-5-nitroquinaldine” (Riker Laboratories, Inc., priority 1984, dated 1985)
In brackets after ≈: the same amount, converted by molar mass. Where two headings read alike, the source gives them in different places.

Experiments:
Pseudomonas aeruginosa = experiment: Plate dilution antimicrobial susceptibility, Pseudomonas aeruginosa; settings: for MIC: 24 h, read-out: Minimum Inhibitory Concentration
Experimental: (§1) Tryptone soy agar (oxoid) of the following composition is the culture medium.
(§2) A series of plates with these concentrations is prepared. Ten percent horse serum is added to one series of such plates. Aliquots of broth culture of any of twelve species of microorganisms are innoculated onto the agar plates contaning the various compound concentrations. The plates are incubated at 37° C. in a 10 percent carbon dioxide atmosphere for 18 to 24 hours. The microbial growth on each plate is read visually, and minimal inhibitory concentrations are recorded.
(§3) The tests were run both in the absence and in the presence of horse serum as described hereinabove.

Staphylococcus aureus = experiment: Plate dilution antimicrobial susceptibility, Staphylococcus aureus; settings: for MIC: 24 h, read-out: Minimum Inhibitory Concentration
Experimental: as §1, §2, §3

ENTEROCOCCUS = experiment: Plate dilution antimicrobial susceptibility, Enterococcus; settings: for MIC: 24 h
Experimental: as §1, §2, §3

Escherichia coli = experiment: Plate dilution antimicrobial susceptibility, Escherichia coli; settings: for MIC: 24 h, read-out: Minimum Inhibitory Concentration
Experimental: as §1, §2, §3

Klebsiella pneumoniae = experiment: Plate dilution antimicrobial susceptibility, Klebsiella pneumoniae; settings: for MIC: 24 h, read-out: Minimum Inhibitory Concentration
Experimental: as §1, §2, §3

STREP. SPECIES = experiment: Plate dilution antimicrobial susceptibility, Strep. species; settings: for MIC: 24 h, read-out: Minimum Inhibitory Concentration, Strep. species; for Minimum Inhibitory Concentration: Strep. species
Experimental: as §1, §2, §3

[1] = tested on: gram-positive and gram-negative microorganisms; experiment: Plate dilution method, antimicrobial activity in general (gram-positive and gram-negative microorganisms); format: cell-based; settings: in vitro
[2] = presence of 10 percent horse serum
[3] = read-out: Minimum Inhibitory Concentration, Enterococcus, absence of horse serum
[4] = read-out: Minimum Inhibitory Concentration, Enterococcus, presence of 10 percent horse serum

Row | Compound | Minimum Inhibitory Concentration (Pseudomonas aeruginosa; [2]) | Minimum Inhibitory Concentration (Staphylococcus aureus; [2]) | Minimum Inhibitory Concentration (ENTEROCOCCUS; [2]) | Minimum Inhibitory Concentration (Escherichia coli; [2]) | Minimum Inhibitory Concentration (Klebsiella pneumoniae; [2]) [mg/L] | Minimum Inhibitory Concentration (Klebsiella pneumoniae; absence of horse serum) [mg/L] | Minimum Inhibitory Concentration (Pseudomonas aeruginosa; absence of horse serum) | Minimum Inhibitory Concentration (Staphylococcus aureus; absence of horse serum) | Minimum Inhibitory Concentration (ENTEROCOCCUS; absence of horse serum) | Minimum Inhibitory Concentration (Escherichia coli; absence of horse serum) [mg/L] | Minimum Inhibitory Concentration (STREP. SPECIES; absence of horse serum) | Minimum Inhibitory Concentration (STREP. SPECIES; [2]) | also measured
1 | CC1CCc2c(Br)c(F)cc3c(=O)c(C(=O)[O-])cn1c23.[Na+] (stereo not shown) [8-Br, 9-F sodium salt, sodium 8-bromo-6,7-dihydro-9-fluoro-5-methyl-1-oxo-1H,5H-benzo[ij]quinolizine-2-carboxylate] | 10 mg/L | .1 mg/L | 1 mg/L | .1 mg/L |  |  |  |  |  |  |  |  | 
2 | CC1CCc2c(Br)c(F)cc3c(=O)c(C(=O)O)cn1c23 (stereo not shown) [8-Br, 9-F, 8-bromo-6,7-dihydro-9-fluoro-5-methyl-1-oxo-1H,5H-benzo[ij]quinolizine-2-carboxylic acid] | 10 mg/L | .1 mg/L |  | .1 mg/L | 1 |  |  |  |  |  |  |  | MIC (Klebsiella pneumoniae): 1 µg/mL (≈ 2.94 µM); MIC (Pseudomonas aeruginosa): 10 µg/mL (≈ 29.4 µM); MIC (Staphylococcus aureus): 0.1 µg/mL (≈ 0.294 µM); MIC (ENTEROCOCCUS; [3]): 1 µg/mL (≈ 2.94 µM); MIC (ENTEROCOCCUS; [4]): 1 µg/mL; MIC (Escherichia coli): 0.1 µg/mL (≈ 0.294 µM); MIC (STREP. SPECIES; absence of horse serum): 1 µg/mL (≈ 2.94 µM); MIC (STREP. SPECIES; [2]): 10 µg/mL
3 | Cc1cc2c(=O)c(C(=O)O)cn3c2c(c1Cl)CCC3C (stereo not shown) [8-Cl, 9-CH3] | I | 100 mg/L | I | 10 mg/L | 100 | 100 | 100 mg/L | 10 mg/L | 100 mg/L | 10 | 100 mg/L | 100 mg/L | 
4 | CC1CCc2c(Cl)c(F)cc3c(=O)c(C(=O)[O-])cn1c23.[Na+] (stereo not shown) [8-Cl, 9-F sodium salt, sodium 8-chloro-6,7-dihydro-9-fluoro-5-methyl-1-oxo-1H,5H-benzo[ij]quinolizine-2-carboxylate] | 10 mg/L |  | 1 mg/L |  | 1 |  |  |  |  |  |  |  | 
5 | CC1CCc2c(Cl)c(F)cc3c(=O)c(C(=O)O)cn1c23 (stereo not shown) [8-Cl, 9-F, 8-chloro-6,7-dihydro-9-fluoro-5-methyl-1-oxo-1H,5H-benzo[ij]quinolizine-2-carboxylic acid] | 10 mg/L |  |  | .1 mg/L | 1 |  |  |  |  |  |  |  | MIC (Klebsiella pneumoniae): 1 µg/mL (≈ 3.38 µM); MIC (Pseudomonas aeruginosa): 10 µg/mL (≈ 33.8 µM); MIC (Staphylococcus aureus): 0.1 µg/mL (≈ 0.338 µM); MIC (ENTEROCOCCUS; [3]): 1 µg/mL (≈ 3.38 µM); MIC (ENTEROCOCCUS; [4]): 10 µg/mL; MIC (Escherichia coli): 0.1 µg/mL (≈ 0.338 µM); MIC (STREP. SPECIES; [2]): 10 µg/mL
6 | COc1cc2c(=O)c(C(=O)O)cn3c2c(c1Cl)CCC3C (stereo not shown) [8-Cl, 9-OCH3] | I | 10 mg/L | 100 mg/L | 10 mg/L | 100 | 100 | I | 10 mg/L | 100 mg/L | 10 | 100 mg/L | 100 mg/L | 
7 | CC1CCc2c(N)c(Cl)cc3c(=O)c(C(=O)O)cn1c23 (stereo not shown) [8-NH2,9-Cl] | I | 100 mg/L | I | 10 mg/L | 100 | 100 | I | 100 mg/L | I | 10 | I | I | 
8 | CC(=O)Nc1c(Cl)cc2c(=O)c(C(=O)O)cn3c2c1CCC3C (stereo not shown) [8-NHCOCH3, 9-Cl] | I | I | I | 10 mg/L | 100 | 100 | I | I | I | 10 | I | I | 
9 | CC1CCc2c(N)c(F)cc3c(=O)c(C(=O)O)cn1c23 (stereo not shown) [8-amino compound, 8-amino-6,7-dihydro-9-fluoro-5-methyl-1-oxo-1H,5H-benzo[ij]quinolizine-2-carboxylic acid] |  |  |  |  |  |  |  |  |  |  |  |  | antimicrobial activity (in words) [1]: good antimicrobial activity against many species of microorganisms
10 | CC1CCc2c(Cl)ccc3c(=O)c(C(=O)O)cn1c23 (stereo not shown) [Example 8-Cl] | 100 mg/L | 1 mg/L | 10 mg/L | 1 mg/L | 10 | 10 | 100 mg/L | 1 mg/L | 10 mg/L | 1 | 10 mg/L | 100 mg/L | 
11 | CC1CCc2cc(Br)cc3c(=O)c(C(=O)O)cn1c23 (stereo not shown) [Example 9-Br] | I | 100 mg/L |  | 10 mg/L |  |  | I | 100 mg/L |  | 10 | 100 mg/L | 100 mg/L | 
12 | CC1CCc2cc(Cl)cc3c(=O)c(C(=O)O)cn1c23 (stereo not shown) [Example 9-Cl] | I | 10 mg/L |  | 1 mg/L |  |  | I | 10 mg/L |  | 1 | 100 mg/L | 100 mg/L | 
13 | CC1CCc2cc(F)cc3c(=O)c(C(=O)O)cn1c23 (stereo not shown) [Example 9-F] | 100 mg/L | 10 mg/L | 100 mg/L | 1 mg/L | 1 | 1 | 100 mg/L | 10 mg/L | 100 mg/L | 1 | 100 mg/L | 100 mg/L | 
